The source of these data is patent publication US10975119B2, “Selective cysteine protease inhibitors and uses thereof” (Genesis Technologies Limited, priority 2011, dated 2021).

Holding throughout (type): biochemical
For one assay, the target named is T1, Caspase-3 (Homo sapiens, UniProt P42574).
T1 construct: mixing the compounds with the respective active caspases; purchased BioVision K153-100
T1 sequence (P42574 29-175 limits assumed): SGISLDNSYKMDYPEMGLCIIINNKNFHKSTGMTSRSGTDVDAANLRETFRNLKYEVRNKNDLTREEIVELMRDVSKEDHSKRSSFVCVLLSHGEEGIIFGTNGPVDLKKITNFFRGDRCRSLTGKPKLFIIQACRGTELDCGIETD
T1 sequence (P42574 176-277 limits assumed): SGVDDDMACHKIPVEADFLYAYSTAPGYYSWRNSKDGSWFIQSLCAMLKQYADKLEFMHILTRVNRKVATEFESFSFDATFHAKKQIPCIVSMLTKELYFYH
The assay can be described thus: Caspase-3 inhibitor screening assay (BioVision kit, DEVD-AFC). The note with it: for IC50: read-out: IC50 Casp3. An outline of the steps: (§1)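 Fluorometric read-out of free AFC released from the caspase-specific synthetic substrate. IC50 from concentration series, sometimes narrower.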

In a further assay the target is T2, Caspase-5 (Homo sapiens, UniProt P51878).
T2 construct: mixing the compounds with the respective active caspases; purchased BioVision K155-100
T2 sequence (P51878 137-327 limits assumed): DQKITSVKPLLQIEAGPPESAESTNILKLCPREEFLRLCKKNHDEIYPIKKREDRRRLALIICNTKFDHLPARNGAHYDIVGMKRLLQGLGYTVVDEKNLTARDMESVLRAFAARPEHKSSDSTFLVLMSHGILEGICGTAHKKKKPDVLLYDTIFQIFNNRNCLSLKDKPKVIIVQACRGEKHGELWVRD
T2 sequence (P51878 347-434 limits assumed): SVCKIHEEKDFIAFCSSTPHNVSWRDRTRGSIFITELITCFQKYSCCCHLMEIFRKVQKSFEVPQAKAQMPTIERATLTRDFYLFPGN
The assay can be described thus: Caspase-5 inhibitor screening assay (BioVision kit, WEHD-AFC). An outline of the steps:
as §1

A further assay deals with T3, Caspase-6 (Homo sapiens, UniProt P55212).
T3 construct: mixing the compounds with the respective active caspases; purchased BioVision K156-100
T3 sequence (P55212 24-179 limits assumed): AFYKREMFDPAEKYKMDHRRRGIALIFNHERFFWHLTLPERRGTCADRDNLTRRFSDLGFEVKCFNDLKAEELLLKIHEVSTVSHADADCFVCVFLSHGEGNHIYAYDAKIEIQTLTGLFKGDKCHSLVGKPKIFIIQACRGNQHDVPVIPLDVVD
T3 sequence (P55212 194-293 limits assumed): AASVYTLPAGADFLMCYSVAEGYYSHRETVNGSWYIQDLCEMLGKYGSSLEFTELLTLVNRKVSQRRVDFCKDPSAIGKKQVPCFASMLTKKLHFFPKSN
Briefly: Caspase-6 inhibitor screening assay (BioVision kit, VEID-AFC). The note with it: for IC50: read-out: IC50 Casp6. An outline of the steps: as §1

A further assay addresses T4, Caspase-10 (Homo sapiens, UniProt Q92851).
T4 construct: mixing the compounds with the respective active caspases; purchased BioVision K160-100
T4 sequence (Q92851 220-415 limits assumed): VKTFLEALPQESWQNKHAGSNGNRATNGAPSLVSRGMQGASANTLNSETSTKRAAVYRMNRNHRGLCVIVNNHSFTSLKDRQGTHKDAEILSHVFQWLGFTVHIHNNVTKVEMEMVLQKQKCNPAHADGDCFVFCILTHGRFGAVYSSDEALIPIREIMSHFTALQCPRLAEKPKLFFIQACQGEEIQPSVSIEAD
T4 sequence (Q92851 416-521 limits assumed): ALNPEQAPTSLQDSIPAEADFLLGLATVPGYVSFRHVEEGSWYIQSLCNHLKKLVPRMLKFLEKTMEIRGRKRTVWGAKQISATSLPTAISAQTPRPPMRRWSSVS
The assay can be described thus: Caspase-10 inhibitor screening assay (BioVision kit, AEVD-AFC). The conditions noted are these: for IC50: read-out: IC50 Casp10. An outline of the steps:
as §1

The subject of a further assay is Caspases 1 through 10. The assay can be described thus: Caspase-1 to Caspase-10 inhibitor screening, profile across the panel. As to the method: The efficacy of an array of compounds as an inhibitor of the activity of Caspases 1 through 10 were assessed by using the respective Caspase Inhibitor Drug Screening Kits (Caspase-1 Catalog #: K151-100, Caspase-2 Catalog #: K152-100, Caspase-3 Catalog #: K153-100, Caspase-4 Catalog #: K154-100, Caspase-5 Catalog #: K155-100, Caspase-6 Catalog #: K156-100, Caspase-7 Catalog #: K157-100, Caspase-8 Catalog #: K158-100, Caspase-9 Catalog #: K159-100, Caspase-10 Catalog #: K160-100, BioVision) following the instructions of the manufacturer. […] Active caspases cleaved their respective synthetic substrates to release free AFC, which was then quantified by fluorometry.
Briefly, the compounds were first tested at 2 concentrations (10 uM and 100 uM final) to determine if there is a hit. […] Each condition was tested in duplicates. […] For some samples, a smaller range of concentrations was tested depending on the % Inhibition results at 10 uM and 100 uM. Results were summarized in Tables 2, 3, and 4 herein after. Table 2 represents the IC50 values (uM) of the test compounds as inhibitors of the activity of the various caspases.
(*) RFU (no inhibitor control)—RFU (compound at a specific concentration)
RFU (no inhibitor control)

SMILES strings stand for the structures. “Also recorded” adds a separate entry of the source. Like-named read-outs stand apart in the source and are kept apart here. Where only a bound is given, the exact number is not on record here.

Regarding `CC(C)(C)[C@H](NC(=O)c1ccc2ccccc2n1)C(=O)N1CCC[C@@H]1C(=O)N[C@H](/C=C/S(C)(=O)=O)CC(=O)O` [Compound 6, 2-Quinoline carbonyl-t-Leu-pro-Asp methyl vinyl sulfone], the inhibition at 10 µM came out at 1% on Caspase-3 (read-out: % Inhibition at 10 uM Casp3); 86% on Caspase-5 (read-out: % Inhibition at 10 uM Casp5); 0% at Caspase-6 (read-out: % Inhibition at 10 uM Casp6); 3% at Caspase-10 (10 uM, read-out: % Inhibition at 10 uM Casp10). In addition, the inhibition at 100 µM on Caspase-3 (read-out: % Inhibition at 100 uM Casp3) was determined as 1%; on Caspase-5 (read-out: % Inhibition at 100 uM Casp5), 99%; on Caspase-6 (read-out: % Inhibition at 100 uM Casp6), 3%; at Caspase-10 (100 uM, read-out: % Inhibition at 100 uM Casp10), 74%. The IC50 on Caspase-3 was more than 100 µM; at Caspase-5 (read-out: potency (IC50) against caspase-5), 2.32 µM; at Caspase-6, more than 100 µM; at Caspase-10, 56 µM. In the assay with Caspases 1 through 10, the “inhibition profile across caspases, in words” value is recorded as “inhibits selectively caspase-1; also recorded: very strong inhibitory activity towards pro-inflammatory Caspases”.
In the case of `CCOC(=O)/C=C/[C@H](CC(=O)O)NC(=O)[C@H]1CCCN1C(=O)[C@@H](NC(=O)c1ccc(N)c(Cl)c1)C(C)(C)C` [Compound 116, (4-amino-3-chlorobenzene carbonyl)-t-Leu-Pro-Asp Ethyl vinyl ester], the concentration for half-maximal inhibition (IC50) at Caspase-3 was 33.4 µM; at Caspase-5 (read-out: IC50 Casp5), 0.13 µM; on Caspase-6 it was more than 100 µM; at Caspase-10, 0.55 µM. Moreover, the “inhibition profile across caspases, in words” value in the assay on Caspases 1 through 10 is “stronger inhibitory activity towards pro-inflammatory caspases Caspase-1 and -5”.
